From patent US12252701B2, “Chimeric antigen receptor T cell therapy” (KITE PHARMA, INC., priority 2020, dated 2025)
Where two headings read alike, the source gives them in different places. Each block holds one compound with its values, some of them ahead of it.

Assays:
CD19 CAR T cells = assay: CAR T cell cytokine production (Luminex) under CD19 K562, KIP-1 or CD2/3/28 stimulation; conditions: 72 h; for IC50: Homo sapiens, T-cell; for Suppression of cytokine production, IFNg (IC50) / Suppression of cytokine production, IL-6 (IC50): K562-CD19 stimulation
Description: Cryopreserved healthy donor CLP CD19 CAR T cells were thawed and rested overnight in 100 U/ml of IL-2 at 1×10^6/ml. 2.5×10^5 CD19 CART cells were plated in 96-well RB plate wells in a total volume of 200 μl of R10 culture media. […] CD19 CART cell cytokine production was allowed to proceed through 72 hours in the presence of stimulator and JAKi or steroid. Following 72 h of culture, 100 μl of the cell supernatant of each well were harvested and stored at −80° C. for later Luminex/Bioplex-200 cytokine analysis. Briefly, stored supernatants were thawed and 50 μl of the sample was assayed for cytokines using a ThermoFisher Procarta Plex 19-plex human cytokine assay kit (ThermoFisher, Carlsbad, CA) according to kit manufacturer's instructions and detected using a BioRad Bioplex-200 instrument. The data points generated from the luminex cytokine assay were transferred to a GraphPad PRISM IC50 dose-response curve analysis to generate IC50 or potency values for the JAKi's and steroids tested.

in vitro = conditions: human
Description: (§1) 96-well plates were coated with 100 μl of KIP-1 antibody per well at 1 μg/ml in PBS and plates were incubated at 4° C. overnight. CAR-T cells were thawed and were rested in ImmunoCult expansion medium and incubated overnight at 37° C. Cells were then counted and resuspended at 2 million cells/ml and seed at 200,000 cells per well in 100 μl of expansion medium with 10 ng/ml recombinant IL2. For groups treated with KIP-1, 100 μl of expansion medium were added with 2× final drug dilutions. For CD3/CD28 treated groups, 100 μl of expansion media were added with 2× final drug dilutions containing 25 μl/ml of CD3/CD28 T cell activator from StemCell Technologies. Cells were then incubated at 37° C. After 4 days, cells were counted and diluted 1 to 8-fold in expansion media and then transferred to a 24-well plate. Cell counts were repeated at day 7 and transferred to T25 flasks. On day 11, all cells were harvested and counted.

[1] = cited from earlier work
CAR-T cells = assay: CAR-T cell expansion assay (KIP-1 or CD3/CD28 stimulation); conditions: for % viabili.: CD3/CD28 stimulation; for % viabi.: KIP-1 stimulation
Description: as §1

- IC50 (CD19 CAR T cells; read-out: Suppression of cytokine production, GMCSF (IC50), CD3/CD28 stimulation, 72 h): < 0.1 µM
- IC50 (CD19 CAR T cells; read-out: Suppression of cytokine production, GMCSF (IC50), K562-CD19 stimulation, 72 h): 0.377 µM
- IC50 (CD19 CAR T cells; read-out: Suppression of cytokine production, GMCSF (IC50), KIP-1 stimulation, 72 h): 0.273 µM
- IC50 (CD19 CAR T cells; read-out: Suppression of cytokine production, GzB (IC50), CD3/CD28 stimulation, 72 h): 2.74 µM
- IC50 (CD19 CAR T cells; read-out: Suppression of cytokine production, GzB (IC50), K562-CD19 stimulation, 72 h): > 10 µM
- IC50 (CD19 CAR T cells; read-out: Suppression of cytokine production, GzB (IC50), KIP-1 stimulation, 72 h): > 10 µM
- IC50 (CD19 CAR T cells; read-out: Suppression of cytokine production, IFNg (IC50), CD3/CD28 stimulation, 72 h): > 10 µM
- IC50 (CD19 CAR T cells; read-out: Suppression of cytokine production, IFNg (IC50), KIP-1 stimulation, 72 h): > 10 µM
- IC50 (CD19 CAR T cells; read-out: Suppression of cytokine production, IL-2Ra (IC50), CD3/CD28 stimulation, 72 h): 0.144 µM
- IC50 (CD19 CAR T cells; read-out: Suppression of cytokine production, IL-2Ra (IC50), K562-CD19 stimulation, 72 h): < 0.1 µM
- IC50 (CD19 CAR T cells; read-out: Suppression of cytokine production, IL-2Ra (IC50), KIP-1 stimulation, 72 h): < 0.1 µM
- IC50 (CD19 CAR T cells; read-out: Suppression of cytokine production, IL-6 (IC50), CD3/CD28 stimulation, 72 h): < 0.1 µM
- IC50 (CD19 CAR T cells; read-out: Suppression of cytokine production, IL-6 (IC50), KIP-1 stimulation, 72 h): 1.97 µM
- IC50 (CD19 CAR T cells; read-out: Suppression of cytokine production, IL-8 (IC50), CD3/CD28 stimulation, 72 h): < 0.1 µM
- IC50 (CD19 CAR T cells; read-out: Suppression of cytokine production, IL-8 (IC50), K562-CD19 stimulation, 72 h): < 0.1 µM
- IC50 (CD19 CAR T cells; read-out: Suppression of cytokine production, IL-8 (IC50), KIP-1 stimulation, 72 h): < 0.1 µM
- IC50 (CD19 CAR T cells; read-out: Suppression of cytokine production, IL-10 (IC50), CD3/CD28 stimulation, 72 h): < 0.1 µM
- IC50 (CD19 CAR T cells; read-out: Suppression of cytokine production, IL-10 (IC50), K562-CD19 stimulation, 72 h): < 0.1 µM
- IC50 (CD19 CAR T cells; read-out: Suppression of cytokine production, IL-10 (IC50), KIP-1 stimulation, 72 h): < 0.1 µM
- IC50 (CD19 CAR T cells; read-out: Suppression of cytokine production, MCP-1 (IC50), CD3/CD28 stimulation, 72 h): < 0.1 µM
- IC50 (CD19 CAR T cells; read-out: Suppression of cytokine production, MCP-1 (IC50), K562-CD19 stimulation, 72 h): < 0.1 µM
- IC50 (CD19 CAR T cells; read-out: Suppression of cytokine production, MCP-1 (IC50), KIP-1 stimulation, 72 h): 2.58 µM
- IC50 (CD19 CAR T cells; read-out: Suppression of cytokine production, MIG (IC50), CD3/CD28 stimulation, 72 h): 0.549 µM
- IC50 (CD19 CAR T cells; read-out: Suppression of cytokine production, MIG (IC50), K562-CD19 stimulation, 72 h): < 0.1 µM
- IC50 (CD19 CAR T cells; read-out: Suppression of cytokine production, MIG (IC50), KIP-1 stimulation, 72 h): < 0.1 µM
- IC50 (CD19 CAR T cells; read-out: Suppression of cytokine production, MIP-1a (IC50), CD3/CD28 stimulation, 72 h): 0.361 µM
- IC50 (CD19 CAR T cells; read-out: Suppression of cytokine production, MIP-1a (IC50), K562-CD19 stimulation, 72 h): 0.167 µM
- IC50 (CD19 CAR T cells; read-out: Suppression of cytokine production, MIP-1a (IC50), KIP-1 stimulation, 72 h): 1.42 µM
- IC50 (CD19 CAR T cells; read-out: Suppression of cytokine production, MIP-1b (IC50), CD3/CD28 stimulation, 72 h): < 0.1 µM
- IC50 (CD19 CAR T cells; read-out: Suppression of cytokine production, MIP-1b (IC50), K562-CD19 stimulation, 72 h): 0.149 µM
- IC50 (CD19 CAR T cells; read-out: Suppression of cytokine production, MIP-1b (IC50), KIP-1 stimulation, 72 h): 0.553 µM
- IC50 (CD19 CAR T cells; read-out: Suppression of cytokine production, Perforin (IC50), CD3/CD28 stimulation, 72 h): 1.59 µM
- IC50 (CD19 CAR T cells; read-out: Suppression of cytokine production, Perforin (IC50), K562-CD19 stimulation, 72 h): < 0.1 µM
- IC50 (CD19 CAR T cells; read-out: Suppression of cytokine production, Perforin (IC50), KIP-1 stimulation, 72 h): 0.431 µM
- IC50 (CD19 CAR T cells; read-out: Suppression of cytokine production, TNFa (IC50), CD3/CD28 stimulation, 72 h): < 0.1 µM
- IC50 (CD19 CAR T cells; read-out: Suppression of cytokine production, TNFa (IC50), K562-CD19 stimulation, 72 h): < 0.1 µM
- IC50 (CD19 CAR T cells; read-out: Suppression of cytokine production, TNFa (IC50), KIP-1 stimulation, 72 h): 0.32 µM
- Suppression of cytokine production, IFNg (IC50) (CD19 CAR T cells): Suppress
- Suppression of cytokine production, IL-6 (IC50) (CD19 CAR T cells): Suppress
SMILES: N#CCC1(n2cc(-c3ncnc4[nH]ccc34)cn2)CN(C2CCN(C(=O)c3ccnc(C(F)(F)F)c3F)CC2)C1 [itacitinib]

SMILES: C[C@@H]1CCN(C(=O)CC#N)C[C@@H]1N(C)c1ncnc2[nH]ccc12 [tofacitinib]
- viability at 0 day, 50 nM (in vitro): 75%
- viability at 0 day, 100 nM (in vitro): 75%
- viability at 4 day, 50 nM (in vitro): 67.7%
- viability at 4 day, 100 nM (in vitro): 61.8%
- viability at 8 day, 50 nM (in vitro): 74.2%
- viability at 8 day, 100 nM (in vitro): 64.7%
- viability at 12 day, 50 nM (in vitro): 80.1%
- viability at 12 day, 100 nM (in vitro): 85.2%
- Cmax ([1]; human, in vivo): 0.058 µg/mL
- Protein binding ([1]; plasma protein binding, reported): 40%
- % viabili. (CAR-T cells; 10 nM, Day 0): 84%
- % viabili. (CAR-T cells; 10 nM, Day 4): 70.8%
- % viabili. (CAR-T cells; 10 nM, Day 8): 80.9%
- % viabili. (CAR-T cells; 10 nM, Day 12): 82.9%
- % viabili. (CAR-T cells; 20 nM, Day 0): 84%
- % viabili. (CAR-T cells; 20 nM, Day 4): 81.1%
- % viabili. (CAR-T cells; 20 nM, Day 8): 70.1%
- % viabili. (CAR-T cells; 20 nM, Day 12): 79.5%
- % viabili. (CAR-T cells; 40 nM, Day 0): 84%
- % viabili. (CAR-T cells; 40 nM, Day 4): 89.2%
- % viabili. (CAR-T cells; 40 nM, Day 8): 73.5%
- % viabili. (CAR-T cells; 40 nM, Day 12): 74.8%
- % viabili. (CAR-T cells; 60 nM, Day 0): 84%
- % viabili. (CAR-T cells; 60 nM, Day 4): 93.1%
- % viabili. (CAR-T cells; 60 nM, Day 8): 86.6%
- % viabili. (CAR-T cells; 60 nM, Day 12): 74.5%
- % viabili. (CAR-T cells; 80 nM, Day 0): 84%
- % viabili. (CAR-T cells; 80 nM, Day 4): 91.7%
- % viabili. (CAR-T cells; 80 nM, Day 8): 86.3%
- % viabili. (CAR-T cells; 80 nM, Day 12): 77%
- % viabili. (CAR-T cells; 100 nM, Day 0): 84%
- % viabili. (CAR-T cells; 100 nM, Day 4): 94.3%
- % viabili. (CAR-T cells; 100 nM, Day 8): 85.5%
- % viabili. (CAR-T cells; 100 nM, Day 12): 73.9%
- % viabi. (CAR-T cells; 10 nM, Day 0): 84%
- % viabi. (CAR-T cells; 10 nM, Day 4): 77.9%
- % viabi. (CAR-T cells; 10 nM, Day 8): 61.2%
- % viabi. (CAR-T cells; 10 nM, Day 12): 85.2%
- % viabi. (CAR-T cells; 20 nM, Day 0): 84%
- % viabi. (CAR-T cells; 20 nM, Day 4): 84.7%
- % viabi. (CAR-T cells; 20 nM, Day 8): 64.9%
- % viabi. (CAR-T cells; 20 nM, Day 12): 79.3%
- % viabi. (CAR-T cells; 40 nM, Day 0): 84%
- % viabi. (CAR-T cells; 40 nM, Day 4): 84.3%
- % viabi. (CAR-T cells; 40 nM, Day 8): 77.5%
- % viabi. (CAR-T cells; 40 nM, Day 12): 76%
- % viabi. (CAR-T cells; 60 nM, Day 0): 84%
- % viabi. (CAR-T cells; 60 nM, Day 4): 82.3%
- % viabi. (CAR-T cells; 60 nM, Day 8): 70.2%
- % viabi. (CAR-T cells; 60 nM, Day 12): 76.1%
- % viabi. (CAR-T cells; 80 nM, Day 0): 84%
- % viabi. (CAR-T cells; 80 nM, Day 4): 81.8%
- % viabi. (CAR-T cells; 80 nM, Day 8): 69.7%
- % viabi. (CAR-T cells; 80 nM, Day 12): 73.4%
- % viabi. (CAR-T cells; 100 nM, Day 0): 84%
- % viabi. (CAR-T cells; 100 nM, Day 4): 73.2%
- % viabi. (CAR-T cells; 100 nM, Day 8): 72.7%
- % viabi. (CAR-T cells; 100 nM, Day 12): 79.4%
- effect on T cell expansion (CAR-T cells; at the doses tested (Table 40)): moderate effects
- impacts on expansion in further dose titrations (CAR-T cells; compared with upadacitinib and baricitinib): less severe in comparison
- Suppression of cytokine production, IFNg (IC50) (CD19 CAR T cells): Suppress
- Suppression of cytokine production, IL-6 (IC50) (CD19 CAR T cells): Suppress
